Laboratory results as given in patent US5298495A, “Partricin derivatives” (SPA Societa' Prodotti Antibiotici SpA, priority 1990, dated 1994).
≈ marks a conversion by molar mass, not a printed value. Like-named read-outs stand apart in the source and are kept apart here.

Tests used:
C. albicans 73 = assay: Microbiological activity on C. albicans (MIC); format: cell-based; settings: Fluid Sab. Med, 36° C.; for MIC: Candida albicans, 73
Excerpt: (§1) MIC (ng/ml) Hemolytic con.(mcg/ml)
(§2) C. albicans 73 rat erytrocytes, […]

rat erytrocytes = assay: Hemolytic activity on rat erythrocytes; format: cell-based
Excerpt: as §1, §2

[1] = Acute toxicity in mice (DL50); format: in vivo; settings: mouse, in vivo
[2] = Solubility and reaction in water; format: physicochemical
mice = assay: Acute toxicity in mice (DL50); format: in vivo
[3] = cited from earlier work
[4] = 24 h, read-out: MIC C. albicans 73, 24 h
[5] = 48 h, read-out: MIC C. albicans 73, 48 h
[6] = rat erytrocytes, 4 h at 37° C., minimum
[7] = rat erytrocytes, 4 h at 37° C., total

Molecule | MIC (C. albicans 73; [4]) | MIC (C. albicans 73; [5]) | Hemolytic con. total (THC) (rat erytrocytes) | Hemolytic con. min. (MHC) (rat erytrocytes; rat, 240 min) | LD50 ([1]; ip, read-out: DL50 mice i.p.) | also measured
CNc1ccc(C(=O)CC(O)CCC(C)C2OC(=O)CC(O)CC(=O)CC(O)CC(O)CC(O)CC(O)CC3(O)CC(O)C(C(=O)N4CCN(CCO)CC4)C(CC(OC4OC(C)C(O)C(NC(=O)CN5CCN(C)CC5)C4O)C=CC=CC=CC=CC=CC=CC=CC2C)O3)cc1 (centres unmarked) [Partr. A, drawing 40, drawing 41] | 0.015 µg/mL (≈ 0.0109 µM) | 0.0212 µg/mL (≈ 0.0154 µM) | 2 µg/mL | 0.2 µg/mL | – | –
CNc1ccc(C(=O)CC(O)CCC(C)C2OC(=O)CC(O)CC(=O)CC(O)CC(O)CC(O)CC(O)CC3(O)CC(O)C(C(=O)N4CCN(CCO)CC4)C(CC(OC4OC(C)C(O)C(NC(=O)CCN5CCCCC5)C4O)C=CC=CC=CC=CC=CC=CC=CC2C)O3)cc1 (centres unmarked) [Partr. A, drawing 34, drawing 35] | 0.0075 µg/mL (≈ 0.00544 µM) | 0.03 µg/mL (≈ 0.0218 µM) | 2 µg/mL | 0.2 µg/mL | – | –
CNc1ccc(C(=O)CC(O)CCC(C)C2OC(=O)CC(O)CC(=O)CC(O)CC(O)CC(O)CC(O)CC3(O)CC(O)C(C(=O)N4CCN(C)CC4)C(CC(OC4OC(C)C(O)C(NC(=O)CN(C)C)C4O)C=CC=CC=CC=CC=CC=CC=CC2C)O3)cc1 (centres unmarked) [Partr. A, COCH2N(CH3)2, drawing 31] | 0.0075 µg/mL (≈ 0.00579 µM) | 0.0212 µg/mL (≈ 0.0164 µM) | – | – | 3.6 mg/kg | Hemolytic con. min. (MHC) (rat erytrocytes; [6]): 0.2 µg/mL; Hemolytic con. total (THC) (rat erytrocytes; [7]): 2 µg/mL
CNc1ccc(C(=O)CC(O)CCC(C)C2OC(=O)CC(O)CC(=O)CC(O)CC(O)CC(O)CC(O)CC3(O)CC(O)C(C(=O)OC)C(CC(OC4OC(C)C(O)C(NC(=O)CN5CCN(C)CC5)C4O)C=CC=CC=CC=CC=CC=CC=CC2C)O3)cc1 (centres unmarked) [Partr. A, drawing 38, OCH3] | 0.015 µg/mL (≈ 0.0117 µM) | 0.03 µg/mL (≈ 0.0234 µM) | 18 µg/mL | 0.7 µg/mL | 29.3 mg/kg | –
CNc1ccc(C(=O)CC(O)CCC(C)C2OC(=O)CC(O)CC(=O)CC(O)CC(O)CC(O)CC(O)CC3(O)CC(O)C(C(=O)NCCN(C)C)C(CC(OC4OC(C)C(O)C(NC(=O)CN5CCN(CCO)CC5)C4O)C=CC=CC=CC=CC=CC=CC=CC2C)O3)cc1 (centres unmarked) [Partr. A, drawing 45, NHCH2 CH2N(CH3)2] | 0.0075 µg/mL (≈ 0.00548 µM) | 0.0212 µg/mL (≈ 0.0155 µM) | 18 µg/mL | 0.7 µg/mL | > 100 mg/kg | –
CNc1ccc(C(=O)CC(O)CCC(C)C2OC(=O)CC(O)CC(=O)CC(O)CC(O)CC(O)CC(O)CC3(O)CC(O)C(C(=O)NCCc4ccccn4)C(CC(OC4OC(C)C(O)C(NC(=O)CCN5CCCCC5)C4O)C=CC=CC=CC=CC=CC=CC=CC2C)O3)cc1 (centres unmarked) [Partr. A, drawing 51, drawing 52] | 0.03 µg/mL (≈ 0.0219 µM) | 0.06 µg/mL (≈ 0.0438 µM) | > 18 µg/mL | 6 µg/mL | > 300 mg/kg | LD50 ([1]; iv, read-out: DL50 mice i.v.): 109 mg/kg
CNc1ccc(C(=O)CC(O)CCC(C)C2OC(=O)CC(O)CC(=O)CC(O)CC(O)CC(O)CC(O)CC3(O)CC(O)C(C(=O)N4CCN(CCO)CC4)C(CC(OC4OC(C)C(O)C(NC(=O)CN(C)C)C4O)C=CC=CC=CC=CC=CC=CC=CC2C)O3)cc1 (centres unmarked) [Partr. A, COCH2N(CH3)2, drawing 30] | 0.0075 µg/mL (≈ 0.00566 µM) | 0.0212 µg/mL (≈ 0.016 µM) | 0.7 µg/mL | 0.2 µg/mL | – | –
CNc1ccc(C(=O)CC(O)CCC(C)C2OC(=O)CC(O)CC(=O)CC(O)CC(O)CC(O)CC(O)CC3(O)CC(O)C(C(=O)NCCN(C)C)C(CC(OC4OC(C)C(O)C(NC(=O)CN(C)C)C4O)C=CC=CC=CC=CC=CC=CC=CC2C)O3)cc1 (centres unmarked) [Example 5, N-DIMETHYLAMINOACETYL-PARTRICIN A 2-DIMETHYL-AMINOETHYLAMIDE DIASPARTATE] | – | – | – | – | – | solubility in water [2]: soluble in water; pH of aqueous solution (almost neutral reaction) ([2]; in water): 6
CNc1ccc(C(=O)CC(O)CCC(C)C2OC(=O)CC(O)CC(=O)CC(O)CC(O)CC(O)CC(O)CC3(O)CC(O)C(C(=O)N4CCN(C)CC4)C(CC(OC4OC(C)C(O)C(NC(=O)CN5CCN(C)CC5)C4O)C=CC=CC=CC=CC=CC=CC=CC2C)O3)cc1 (centres unmarked) [Partr. A, drawing 42, drawing 43] | 0.0075 µg/mL (≈ 0.00556 µM) | 0.0212 µg/mL (≈ 0.0157 µM) | – | – | 3.8 mg/kg | Hemolytic con. min. (MHC) (rat erytrocytes; [6]): 0.2 µg/mL; Hemolytic con. total (THC) (rat erytrocytes; [7]): 0.7 µg/mL
CNc1ccc(C(=O)CC(O)CCC(C)C2OC(=O)CC(O)CC(=O)CC(O)CC(O)CC(O)CC(O)CC3(O)CC(O)C(C(=O)OC)C(CC(OC4OC(C)C(O)C(NC(=O)CN5CCN(CCO)CC5)C4O)C=CC=CC=CC=CC=CC=CC=CC2C)O3)cc1 (centres unmarked) [Partr. A, drawing 44, OCH3] | 0.015 µg/mL (≈ 0.0114 µM) | 0.03 µg/mL (≈ 0.0229 µM) | 18 µg/mL | 0.7 µg/mL | > 30 mg/kg | –
CNc1ccc(C(=O)CC(O)CCC(C)C2OC(=O)CC(O)CC(=O)CC(O)CC(O)CC(O)CC(O)CC3(O)CC(O)C(C(=O)N4CCN(CCO)CC4)C(CC(OC4OC(C)C(O)C(NC(=O)CN5CCN(CCO)CC5)C4O)C=CC=CC=CC=CC=CC=CC=CC2C)O3)cc1 (centres unmarked) [Partr. A, drawing 46, drawing 47] | 0.0106 µg/mL (≈ 0.00752 µM) | 0.0212 µg/mL (≈ 0.015 µM) | 0.7 µg/mL | 0.2 µg/mL | – | –
CNc1ccc(C(=O)CC(O)CCC(C)C2OC(=O)CC(O)CC(=O)CC(O)CC(O)CC(O)CC(O)CC3(O)CC(O)C(C(=O)N4CCN(C)CC4)C(CC(OC4OC(C)C(O)C(NC(=O)CCN5CCCCC5)C4O)C=CC=CC=CC=CC=CC=CC=CC2C)O3)cc1 (centres unmarked) [Partr. A, drawing 36, drawing 37] | 0.0075 µg/mL (≈ 0.00556 µM) | 0.015 µg/mL (≈ 0.0111 µM) | 3.5 µg/mL | 0.2 µg/mL | – | –
CNc1ccc(C(=O)CC(O)CCC(C)C2OC(=O)CC(O)CC(=O)CC(O)CC(O)CC(O)CC(O)CC3(O)CC(O)C(C(=O)NCCN(C)C)C(CC(OC4OC(C)C(O)C(NC(=O)CN5CCN(C)CC5)C4O)C=CC=CC=CC=CC=CC=CC=CC2C)O3)cc1 (centres unmarked) [Partr. A, drawing 39, NHCH2 CH2N(CH3)2] | 0.0106 µg/mL (≈ 0.00792 µM) | 0.03 µg/mL (≈ 0.0224 µM) | 18 µg/mL | 2 µg/mL | > 100 mg/kg | –
CNc1ccc(C(=O)CC(O)CCC(C)C2OC(=O)CC(O)CC(=O)CC(O)CC(O)CC(O)CC(O)CC3(O)CC(O)C(C(=O)NCCc4ccccn4)C(CC(OC4OC(C)C(O)C(NC(=O)CN(C)C)C4O)C=CC=CC=CC=CC=CC=CC=CC2C)O3)cc1 (centres unmarked) [Partr. A, COCH2N(CH3)2, drawing 50] | 0.015 µg/mL (≈ 0.0114 µM) | 0.0424 µg/mL (≈ 0.0322 µM) | > 18 µg/mL | 18 µg/mL | > 300 mg/kg | LD50 ([1]; iv, read-out: DL50 mice i.v.): 76.8 mg/kg
CNc1ccc(C(=O)CC(O)CCC(C)C2OC(=O)CC(O)CC(=O)CC(O)CC(O)CC(O)CC(O)CC3(O)CC(O)C(C(=O)NCCCN(C)C)C(CC(OC4OC(C)C(O)C(NC(=O)CN(C)C)C4O)C=CC=CC=CC=CC=CC=CC=CC2C)O3)cc1 (centres unmarked) | 0.015 µg/mL (≈ 0.0116 µM) | 0.03 µg/mL (≈ 0.0231 µM) | 10.4 µg/mL | 0.2 µg/mL | 12.4 mg/kg | –
CNc1ccc(C(=O)CC(O)CCC(C)C2OC(=O)CC(O)CC(=O)CC(O)CC(O)CC(O)CC(O)CC3(O)CC(O)C(C(=O)OC)C(CC(OC4OC(C)C(O)C(NC(=O)CCN5CCCCC5)C4O)C=CC=CC=CC=CC=CC=CC=CC2C)O3)cc1 (centres unmarked) [Partr. A, drawing 32, OCH3] | 0.0075 µg/mL (≈ 0.00586 µM) | 0.0424 µg/mL (≈ 0.0331 µM) | 18 µg/mL | 3.5 µg/mL | > 30 mg/kg | –
mepartricin [Partr., H, OCH3, reference compound] | – | – | – | – | – | MIC C. albicans 73, 24 h (C. albicans 73; 24 h): 0.0075 µg/mL; MIC C. albicans 73, 48 h (C. albicans 73; 48 h): 0.03 µg/mL; Hemolytic con. min. (MHC) (rat erytrocytes; [6]): 0.7 µg/mL; Hemolytic con. total (THC) (rat erytrocytes; [7]): 18 µg/mL; DL50 mice i.p. (mice): 15.8 mg/kg; DL50 mice i.v. (mice; i.v.): 5.02 mg/kg
mepartricin | – | – | – | – | – | solubility in water of mepartricin (words, background) [3]: water-insoluble
CNc1ccc(C(=O)CC(O)CCC(C)C2OC(=O)CC(O)CC(=O)CC(O)CC(O)CC(O)CC(O)CC3(O)CC(O)C(C(=O)N4CCN(C)CC4)C(CC(OC4OC(C)C(O)C(NC(=O)CN5CCN(CCO)CC5)C4O)C=CC=CC=CC=CC=CC=CC=CC2C)O3)cc1 (centres unmarked) [Partr. A, drawing 48, drawing 49] | 0.0075 µg/mL (≈ 0.00544 µM) | 0.015 µg/mL (≈ 0.0109 µM) | 0.7 µg/mL | 0.2 µg/mL | – | –
CNc1ccc(C(=O)CC(O)CCC(C)C2OC(=O)CC(O)CC(=O)CC(O)CC(O)CC(O)CC(O)CC3(O)CC(O)C(C(=O)NCCN(C)C)C(CC(OC4OC(C)C(O)C(NC(=O)CCN5CCCCC5)C4O)C=CC=CC=CC=CC=CC=CC=CC2C)O3)cc1 (centres unmarked) [Partr. A, drawing 33, NHCH2 CH2N(CH3)2] | 0.0075 µg/mL (≈ 0.00561 µM) | 0.03 µg/mL (≈ 0.0224 µM) | 18 µg/mL | 6 µg/mL | 43.6 mg/kg | –
partricin [Partr., H, OH, reference compound] | – | – | – | – | – | MIC C. albicans 73, 24 h (C. albicans 73; 24 h): 0.03 µg/mL; MIC C. albicans 73, 48 h (C. albicans 73; 48 h): 0.06 µg/mL; Hemolytic con. min. (MHC) (rat erytrocytes; [6]): < 0.2 µg/mL; Hemolytic con. total (THC) (rat erytrocytes; [7]): < 0.2 µg/mL; DL50 mice i.p. (mice): 0.63 mg/kg
CNc1ccc(C(=O)CC(O)CCC(C)C2OC(=O)CC(O)CC(=O)CC(O)CC(O)CC(O)CC(O)CC3(O)CC(O)C(C(=O)NCCN(C)C)C(CC(OC4OC(C)C(O)C(NC(=O)CN(C)C)C4O)C=CC=CC=CC=CC=CC=CC=CC2C)O3)cc1 (centres unmarked) [Partr. A, COCH2N(CH3)2, NHCH2 CH2N(CH3)2, N-dimethylaminoacetyl-partricin A 2-dimethylaminoethylamide] | 0.0075 µg/mL (≈ 0.00585 µM) | 0.015 µg/mL (≈ 0.0117 µM) | > 18 µg/mL | 18 µg/mL | 158 mg/kg | LD50 ([1]; iv, read-out: DL50 mice i.v.): 58 mg/kg
